Our source for the cytotoxicity values is patent US12168037B2, “Intracellular IL-1 alpha peptide methods and compositions” (CEDARS-SINAI MEDICAL CENTER, priority 2018, dated 2024).

Ends that are not written are not given here.

For the data set, the system named is melanoma cells. The data set can be described thus: Cytotoxicity to melanoma cells. In kind it is cell-based, mouse. The conditions noted are these: 40 μg/ml, 5 h. As for the experimental part: We label the SPDIA peptide with 680XL tag (680XL-SPDIA) using the VivoTag 680XL Protein Labeling Kit (PerkinElmer) for determine half-life and membrane penetrating efficiency of SPDIA peptide. B16 or YUMM1.7 melanoma cells are treated with 680XL-SPDIA peptide at various doses (10-100 μg/ml) and durations (1-10 h), and live images for intracellular expression and half-life of the SPDIA peptide are detected by fluorescence microscopy (Keyence, BZ-X). Further, the cellular cytotoxicity to the B16 and YUMM1.7 melanoma cells are measured by LDH cytotoxicity assay kit.
While we do […] expect to observe any cytotoxicity in vitro, at cells at lower concentrations of SPDIA peptide for longer durations (24, 48 h) and assess cell death.

For GKVLKKRRLSL [SPDIA, GKVLKKRRLSL], the cytotoxicity entry is on record as “without inducing cytotoxicity”.
